Earlier results, collected in PMC2916017 (Journal of biomedical optics, 2009).

Key:
caspase-3 = target: T1, caspase-3 (Homo sapiens, UniProt P42574); conditions: standard substrate, comparison value; no reference given
T1 sequence (P42574 29-175 limits assumed): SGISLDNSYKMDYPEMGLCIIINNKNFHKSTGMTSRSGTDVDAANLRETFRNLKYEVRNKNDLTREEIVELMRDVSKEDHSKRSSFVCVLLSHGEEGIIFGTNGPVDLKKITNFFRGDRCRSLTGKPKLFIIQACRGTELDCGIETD
T1 sequence (P42574 176-277 limits assumed): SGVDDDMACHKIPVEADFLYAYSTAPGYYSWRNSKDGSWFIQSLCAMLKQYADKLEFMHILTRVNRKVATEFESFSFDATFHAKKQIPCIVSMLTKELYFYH

αvβ3–positive tumor = conditions: previous work; specific activities 200–500 Ci/mmol

| Km (caspase-3) [µM] | kcat (caspase-3) [s⁻¹] | Substance | tumor visualization by small animal PET (αvβ3–positive tumor) |
| --- | --- | --- | --- |
| 9.7 | 0.75 | Ac-DEVD-AMC | – |
| 11 | – | Ac-DEVD-pNA | – |
| – | – | ^64Cu-DOTA-c(RGDyK) (head to tail) | receptor specific tumor accumulation allowed for αvβ3–positive tumor visualization by small animal PET |
